Results: publication PMC12764842 (Acta Pharmacologica Sinica, 2025)

Tested on: LCMV
Set-up: species or system BALB/c mice
Conditions: mouse, in vivo

Structure (SMILES)	Viral copies in the liver	Body weight decrease of LCMV-challenged mice
O=C1O[C@H]2[C@@H]3OC(=O)c4cc(O)c(O)c(O)c4-c4c(O)c(O)c5oc(=O)c6c(c(O)c(O)c7oc(=O)c4c5c76)-c4c(cc(O)c(O)c4O)C(=O)OC[C@H]3OC(O)[C@@H]2OC(=O)c2cc(O)c(O)c(O)c2-c2c1cc(O)c(O)c2O (mixture of isomers) [Punicalagin]	no effect	
O=C(O)C[C@@H]1C(=O)O[C@H]2[C@H](OC(=O)c3cc(O)c(O)c(O)c3)[C@@H](OC(=O)c3cc(O)c(O)c4c3[C@H]1[C@H](O)C(=O)O4)[C@H](OC(=O)c1cc(O)c(O)c(O)c1)O[C@@H]2COC(=O)c1cc(O)c(O)c(O)c1 [Chebullinic acid, chebulinic acid]	no effect	
O=C(/C=C/c1ccc(O)c(O)c1/C=C/c1ccc(O)c(O)c1)O[C@H](Cc1ccc(O)c(O)c1)C(=O)O [Salvianolic acid A, salvianolic acid A]	significantly reduced	
NC(=O)c1nc(F)c[nH]c1=O [T-705, favipiravir, reference compound]	significantly reduced	decrease was halted
